We go through five compounds from ChEMBL document CHEMBL4359915, “Design, synthesis and biological evaluation of novel diazaspiro[4.5]decan-1-one derivatives as potential chitin synthase inhibitors and antifungal agents” (Eur J Med Chem, 2019).

Assay [1] deals with Candida albicans. The experiment in a line: Antifungal activity against Candida albicans ATCC 76615 assessed as growth inhibition measured after 24 hrs by two-fold broth dilution method. Type of assay: functional. To be noted: ATCC 76615, 24 h.
In a further assay the test system is Aspergillus fumigatus. As to the kind of experiment: Antifungal activity against Aspergillus fumigatus GIMCC 3.19 assessed as growth inhibition measured after 24 hrs by two-fold broth dilution method. It is filed as functional. To be noted: GIMCC 3.19, 24 h.
Another assay has as its system Cryptococcus neoformans. The experiment in a line: Antifungal activity against Cryptococcus neoformans ATCC 32719 assessed as growth inhibition measured after 24 hrs by two-fold broth dilution method. Type of assay: functional. The following applies: ATCC 32719, 24 h.
For a further assay, the system named is Aspergillus flavus. The experiment in a line: Antifungal activity against Aspergillus flavus ATCC 16870 assessed as growth inhibition measured after 24 hrs by two-fold broth dilution method. Type of assay: functional. To be noted: ATCC 16870, 24 h.
A short description of assay [2]: Inhibition of Saccharomyces cerevisiae CGMCC 2.145 chitin synthase using GlcNAc and UDP-GlcNAc as substrate incubated for 60 mins by microplate reader analysis.
A further assay deals with Candida tropicalis. The experiment in a line: Inhibition of Candida tropicalis ATCC 750 chitin synthase at 300 ug/ml using UDP-GlcNAc as substrate relative to control.
In assay [3] the test system is Candida albicans. The experiment in a line: Antifungal activity against Candida albicans ATCC 90023 assessed as growth inhibition measured after 24 hrs by two-fold broth dilution method. Type of assay: functional. To be noted: ATCC 90023, 24 h.
Assay [4] has as its system Staphylococcus aureus. The experiment in a line: Antibacterial activity against methicillin-resistant Staphylococcus aureus N315 assessed as growth inhibition measured after 24 hrs by two-fold broth dilution method. It is filed as functional. The following applies: N315, 24 h.
In assay [5] the test system is Staphylococcus aureus. As to the kind of experiment: Antibacterial activity against Staphylococcus aureus ATCC 25923 assessed as growth inhibition measured after 24 hrs by two-fold broth dilution method. Type of assay: functional. To be noted: ATCC 25923, 24 h.
Another assay relates to Bacillus spizizenii. As to the kind of experiment: Antibacterial activity against Bacillus subtilis ATCC 6633 assessed as growth inhibition measured after 24 hrs by two-fold broth dilution method. It is filed as functional. The following applies: ATCC 6633, 24 h.
The test system of the next assay is Escherichia coli. The experiment in a line: Antibacterial activity against Escherichia coli JM 109 assessed as growth inhibition measured after 24 hrs by two-fold broth dilution method. The following applies: JM 109, 24 h. It is filed as functional.
The next assay relates to Pseudomonas aeruginosa. The experiment in a line: Antibacterial activity against Pseudomonas aeruginosa ATCC 9027 assessed as growth inhibition measured after 24 hrs by two-fold broth dilution method. It is filed as functional. To be noted: ATCC 9027, 24 h.
A short description of assay [6]: Inhibition of Candida tropicalis ATCC 750 chitin synthase using UDP-GlcNAc as substrate.
The test system of a further assay is Proteus vulgaris. The experiment in a line: Antibacterial activity against Bacillus proteus ATCC 8427 assessed as growth inhibition measured after 24 hrs by two-fold broth dilution method. It is filed as functional. To be noted: ATCC 8427, 24 h.

In brackets after ≈: the same amount, converted by molar mass.

For the compound `COc1ccc(N2CCN(C(=O)[C@H](O)[C@@H](O)C(=O)Nc3c(O)c4cc(O)ccc4oc3=O)CC2)cc1`, the MIC in the assay on Candida albicans [1], in the assay with Aspergillus fumigatus, in the assay with Cryptococcus neoformans and with Aspergillus flavus was 16 to 64 µg/mL throughout. This compound yielded an IC50 in assay [2] of 100 µM.
The compound `O=C(Nc1ccc(F)cc1F)[C@H](O)[C@@H](O)C(=O)N1CCC2(CCNC2=O)CC1` displayed an inhibition in the assay with Candida tropicalis of 65.2%. Besides, the MIC in the assay on Candida albicans [1] stood at 640 µM; with Aspergillus fumigatus it was 80 µM; in the assay with Candida albicans [3] it was 320 µM (≈ 127 µg/mL); with Cryptococcus neoformans it was 640 µM; in the assay with Aspergillus flavus it was 320 µM; in the assay on Staphylococcus aureus [4], 80 µM (≈ 31.8 µg/mL). The MIC is 320 µM (≈ 127 µg/mL) with Staphylococcus aureus [5]; 160 µM (≈ 63.6 µg/mL) with Bacillus spizizenii; 320 µM (≈ 127 µg/mL) with Escherichia coli; 320 µM (≈ 127 µg/mL) with Pseudomonas aeruginosa; 160 µM (≈ 63.6 µg/mL) in the assay on Proteus vulgaris. Also, the IC50 in assay [6] amounted to 290 µM.
For `O=C(Nc1ccc([N+](=O)[O-])cc1)[C@H](O)[C@@H](O)C(=O)N1CCC2(CCNC2=O)CC1`, in the assay on Candida tropicalis, the inhibition was found to be 58.4%. In addition, the MIC is 1260 µM in the assay with Candida albicans [1]; 310 µM in the assay on Aspergillus fumigatus; 1260 µM (≈ 512 µg/mL) in the assay with Candida albicans [3]; 1260 µM with Cryptococcus neoformans; 1260 µM in the assay with Aspergillus flavus; 630 µM (≈ 256 µg/mL) in the assay on Staphylococcus aureus [4]. Moreover, the MIC with Staphylococcus aureus [5] was 160 µM (≈ 65 µg/mL); in the assay with Bacillus spizizenii it was 1260 µM (≈ 512 µg/mL); in the assay on Escherichia coli, 310 µM (≈ 126 µg/mL); with Pseudomonas aeruginosa, 630 µM (≈ 256 µg/mL); in the assay on Proteus vulgaris it was 310 µM (≈ 126 µg/mL). It took 390 µM to reach half-maximal inhibition in assay [6] (IC50).
In the assay with Candida tropicalis, `O=C(Nc1ccccc1Cl)[C@H](O)[C@@H](O)C(=O)N1CCC2(CCNC2=O)CC1` had an inhibition of 85.5%. Besides, the MIC in the assay on Candida albicans [1] was determined as 1290 µM; in the assay with Aspergillus fumigatus, 320 µM; with Candida albicans [3], 1290 µM (≈ 511 µg/mL); with Cryptococcus neoformans, 320 µM; with Aspergillus flavus it was 1290 µM; in the assay with Staphylococcus aureus [4], 320 µM (≈ 127 µg/mL). Also, the MIC with Staphylococcus aureus [5] came out at 160 µM (≈ 63.3 µg/mL); in the assay on Bacillus spizizenii, 650 µM (≈ 257 µg/mL); with Escherichia coli it was 320 µM (≈ 127 µg/mL); in the assay on Pseudomonas aeruginosa, 320 µM (≈ 127 µg/mL); in the assay with Proteus vulgaris, 160 µM (≈ 63.3 µg/mL). Besides, the midpoint of inhibition in assay [6], the IC50, lay at 140 µM.
For `O=C(Nc1ccc(Cl)cc1Cl)[C@H](O)[C@@H](O)C(=O)N1CCC2(CCNC2=O)CC1`, the inhibition in the assay on Candida tropicalis amounted to 82.8%. Besides, the MIC in the assay on Candida albicans [1] turned out to be 590 µM; in the assay on Aspergillus fumigatus, 590 µM; with Candida albicans [3] it was 300 µM (≈ 129 µg/mL); in the assay on Cryptococcus neoformans, 590 µM; with Aspergillus flavus, 300 µM; in the assay with Staphylococcus aureus [4], 150 µM (≈ 64.5 µg/mL). In addition, the MIC is 590 µM (≈ 254 µg/mL) in the assay on Staphylococcus aureus [5]; 300 µM (≈ 129 µg/mL) in the assay on Bacillus spizizenii; 150 µM (≈ 64.5 µg/mL) with Escherichia coli; 300 µM (≈ 129 µg/mL) with Pseudomonas aeruginosa; 150 µM (≈ 64.5 µg/mL) in the assay on Proteus vulgaris. Also, the half-maximal inhibitory concentration (IC50) in [6] was 130 µM.
